Measured values from patent US7235577B1 (priority 2000, dated 2007).
Where two headings read alike, the source gives them in different places.

Legend:
CYP3A4 = CYP3A4 (Homo sapiens, UniProt P08684); assay: in vitro; conditions: human
Experimental: The test substances shown in Table 8 were evaluated for their inhibitory effect on the catalytic activity of human cytochrome P450 enzyme. Cytochrome P450 3A4 (CYP3A4) is involved in many drug-drug interactions and in many other pathways in the body including the catabolism of steroids and xenobiotics. Inhibition of this enzyme was measured in 96 well plates with 7-benzyloxy-4-trifluoro-methylcoumarin (BFC) as the substrate and cDNA-derived enzymes in microsomes prepared from baculovirus-infected insect cells.
The inhibition study consisted of the determination of inhibition by the test substance on CYP3A4 catalytic activity. […] The compounds were prepared as 10 mM stock solutions in acetonitrile. Metabolism of the model substrate was assayed by the production of 7-hydroxy-4-trifluoromethylcoumarin metabolite. The metabolite was detected by fluorescence.
Table 10 below provides a list of the name of enzymes examined, the catalog number of the microsomes used as a source of the enzyme, the concentration of the model substrate used, the amount of enzyme used, the final buffer concentration, and the positive control compound.
Assays were conducted in 96 well microtiter plates. The BFC substrate was initially prepared in acetonitrile. […] Six wells were used for one test. […] For the positive controls, 12 wells in a row were used for one test. The positive control inhibitor/enzyme combination was examined in duplicate rows. Wells 1 to 8 contained serial 1:3 dilutions of the inhibitors. The highest inhibitor concentration were as described in the table above. Wells 9 and 10 contained no inhibitor and wells 11 and 12 were blanks for background fluorescence (stop solution added before the enzyme).
After buffer, cofactors and inhibitor addition, the plates were pre-warmed to 37° C. Incubations were initiated by the addition of pre-warmed enzyme and substrate. The final cofactor concentrations were 1.3 mM NADP, 3.3 mM glucose-6-phosphate and 0.4 U/ml glucose-6-phosphate dehydrogenase. The final incubation volume was 0.2 ml. Incubations were carried out for 30 minutes [CYP3A4 (BFC)] and stopped by the addition of 0.075 ml of 80% acetonitrile-20% 0.5M Tris. Fluorescence per well was measured using a BMG FLUOstar fluorescence plate reader. The BFC metabolite 7-hydroxy-4-trifluoromethyl-coumarin was measured using an excitation wavelength of 410 nm and emission wavelength of 538 nm.

human IKCa1 channel = human IKCa1 channel (Homo sapiens, UniProt O15554); assay: cell-based; conditions: for IKCa1 inhibition compared with clotrimazole: refers to TABLE 8
human IKCa1 channel, sequence (O15554 whole entry): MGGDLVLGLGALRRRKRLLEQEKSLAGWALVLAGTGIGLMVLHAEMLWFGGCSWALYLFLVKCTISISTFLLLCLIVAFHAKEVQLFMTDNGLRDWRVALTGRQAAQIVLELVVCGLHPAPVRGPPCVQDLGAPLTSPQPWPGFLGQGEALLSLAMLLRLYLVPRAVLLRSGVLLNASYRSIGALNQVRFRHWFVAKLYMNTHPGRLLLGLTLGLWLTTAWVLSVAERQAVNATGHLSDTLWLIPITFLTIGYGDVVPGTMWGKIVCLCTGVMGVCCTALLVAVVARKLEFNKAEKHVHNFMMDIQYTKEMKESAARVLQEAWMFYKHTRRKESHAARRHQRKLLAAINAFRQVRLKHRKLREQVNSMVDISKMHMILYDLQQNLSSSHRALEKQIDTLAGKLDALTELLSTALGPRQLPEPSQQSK
Experimental: COS-7 cells, maintained in Dulbecco's modified Eagle's medium (DMEM) containing 10% heat-inactivated fetal calf serum, 4 mM L-glutamine and 1 mM Na^+ pyruvate, were transiently transfected with hlKCa1.
(§1) Electrophysiological experiments were carried out in the whole-cell configuration of the patch-clamp technique using an EPC-9 amplifier (HEKA Elektronik, Lambrecht Germany) interfaced to a computer running acquisition and analysis software (Pulse and Pulsfit; HEKA Elektronik). Pipettes were pulled from soft glass capillaries, coated with Sylgard (Dow-Corning, Midland, Mich.), and fire polished to resistances of 2.0–4.5 MΩ measured in the bath. COS-7 cells were trypsinized and plated on glass coverslips 3 h before measurement. […] To prevent activation of the native chloride channels in COS-7 cells an aspartate Ringer solution was used as an external solution (160 mM Na^+ aspartate, 4.5 mM KCl, 2 mM CaCl2, 1 mM MgCl2, 5 mM HEPES, adjusted to pH 7.4 with NaOH, with an osmolarity of 290–310 mosM). 200 ms voltage ramps from −120 mV to 40 mV every 10 s were used. The holding potential in all experiments was −80 mV. Series resistance compensation was not employed. The reduction of slope conductance at −80 mV was used to determine the Kd-value by fitting the values to the Hill equation with a Hill coefficient of unity.

COS-7 chloride channel = assay: Selectivity patch clamp, native chloride channels in COS-7 cells; type: cell-based, African green monkey; conditions: native chloride channel of COS-7 cells
Experimental: as §1
Recordings from the Jurkat SKCa channel were made in K^+ aspartate Ringer (Na^+ was replaced by K^+) with the same internal pipette solution. […]

[1] = Hydrolytic stability by HPLC; conditions: pH 5.0, 37° C.
Experimental: A Waters 590 liquid chromatograph with a Waters 746 integrator and a Waters 486 UVN is detector, and a 25 cm Lichrospher RP18 column (5-μM particle size) was used. The mobile phase consisted of K2HPO4 25 mM, KH2PO4 30 mM, methanol at 262:13:725. The chromatographic separation was performed at 20° C. with a flow rate of 1.0 ml/min, the absorbance of the elluent was monitored at 210 nm.
Hydrolysis profiles (10 μM compound with 20% acetonitrile) were carried out in Soerensen phosphate buffer (pH 7.4 and pH 5.0) in a total volume of 10 ml. 100 μl samples were collected 0, 1, 2, 3, 4, 5, 24, 48 and 72 hours after incubation, with shaking, in a waterbath at 37° C. and manually injected into the HPLC over Rheodyne 7125 system. For profiles at pH 1.0 artificial stomach fluid (DAB 9), containing 2 g NaCl, 3,2 g pepsin and 80 ml 1 M HCL in 1.0 L of water was used. After 0, 1 and 2 hours 400 μl of sample were collected and extracted three times with 500 μl of ethyl ether by vortexing. The combined extracts were than evaporated to dryness by passing nitrogen through the solution. The residue was than dissolved in 400 μl of mobile phase of which […] were injected in the HPLC.

[2] = hIKCa1 in COS-7 cells, reduction of slope conductance at −80 mV, 1 μM free Ca++ in pipette

CYP3A4, sequence (P08684 whole entry): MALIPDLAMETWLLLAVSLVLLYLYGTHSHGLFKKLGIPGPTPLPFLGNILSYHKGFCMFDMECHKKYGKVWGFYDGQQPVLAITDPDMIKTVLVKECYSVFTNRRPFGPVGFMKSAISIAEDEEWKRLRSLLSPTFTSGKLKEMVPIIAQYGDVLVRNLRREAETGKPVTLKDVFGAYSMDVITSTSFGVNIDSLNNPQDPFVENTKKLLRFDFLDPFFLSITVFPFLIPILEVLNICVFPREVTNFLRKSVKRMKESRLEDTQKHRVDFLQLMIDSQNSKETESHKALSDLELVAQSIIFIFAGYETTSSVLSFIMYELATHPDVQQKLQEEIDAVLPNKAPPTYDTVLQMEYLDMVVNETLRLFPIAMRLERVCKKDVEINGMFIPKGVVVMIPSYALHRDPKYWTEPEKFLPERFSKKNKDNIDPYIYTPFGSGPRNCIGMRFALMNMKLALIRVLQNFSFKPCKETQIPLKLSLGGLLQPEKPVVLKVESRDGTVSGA

inhibition at 30 min, 10 μM (CYP3A4) [%]	Kd (human IKCa1 channel) [µM]	melting point [°C]	Structure (SMILES)	also measured
–	15	228	NC(=O)NC(c1ccccc1)(c1ccccc1)c1ccc(Cl)cc1 [Compound T29, N-[(4-Chlorophenyl)diphenylmethyl] urea]	–
–	0.55	82	OC(c1ccccc1)(c1ccccc1)c1ccc(Cl)cc1 [Compound T1, (4-Chlorophenyl)diphenyl methanol]	–
–	32	198	Clc1ccccc1C(NCCCNC(c1ccccc1)(c1ccccc1)c1ccccc1Cl)(c1ccccc1)c1ccccc1 [Compound T49, N,N-1,3-[(2-Chlorophenyl)diphenylmethyl]-amino propane]	–
9	0.06	144	N#CC(c1ccccc1)(c1ccccc1)c1ccccc1F [Compound T40, 2-(2-Fluorophenyl)2,2-diphenylacetonitrile]	IKCa1 inhibition compared with clotrimazole (human IKCa1 channel): more potent inhibitors of IKCa1 channels than clotrimazole
–	8	238	NC(=O)NC(c1ccccc1)(c1ccccc1)c1ccccc1 [Compound T24, N-trityl urea]	–
–	1.5	185	CC(=O)NC(c1ccccc1)(c1ccccc1)c1ccccc1C(F)(F)F [Compound T83, N-(2-Trifluoromethylphenyl)diphenylmethyl acetamide]	–
–	0.7	116	OC(c1ccccc1)(c1ccccc1)c1ccccc1F [Compound T36, (2-Fluorophenyl)diphenyl methanol]	–
4	–	–	CCOC(=O)C(C(=O)OCC)C(c1ccccc1)(c1ccccc1)c1ccccc1 [Compound T74]	Kd (human IKCa1 channel; read-out: Kd for block of IKCa1, hIKCa1 in COS-7 cells, reduction of slope conductance at −80 mV, 1 μM free Ca++ in pipette): 0.6 µM
–	30	126	c1ccc(C(c2ccccc2)(c2ccccc2)N2CCCC2)cc1 [Compound T7, 1-Tritylpyrrolidine]	–
-54	1.2	–	CC(=O)NC(c1ccccc1)(c1ccccc1)c1ccccc1Cl [Compound T75, N-(2-chlorophenyl)diphenylmethyl acetamide]	–

Further lines, the compound ahead of its results:

Structure (SMILES)	inhibition at 30 min, 10 μM (CYP3A4) [%]	Kd (human IKCa1 channel) [µM]	melting point [°C]	also measured
Clc1ccccc1C(Nc1ccncc1)(c1ccccc1)c1ccccc1 [Compound T67, N-[(2-Chlorophenyl)diphenylmethyl]-N-(4-pyridyl)amine]	74	30	–	–
OC(c1ccccc1)(c1ccccc1)c1cccs1 [Compound T9, (2-Thienyl)diphenyl methanol]	–	1.5	129	–
c1ccc(C(c2ccccc2)(c2ccccc2)n2cccc2)cc1 [Compound T10, 1-Trityl-1H-pyrrole]	–	28	243	–
OC(c1ccccc1)(c1ccccc1)c1ccc(F)cc1 [Compound T12, (4-Fluorophenyl)diphenyl methanol]	–	0.7	120.5	–
CC(=O)NC(c1ccccc1)(c1ccccc1)c1ccccc1F [Compound T76, N-(2-Fluorophenyl)diphenylmethyl acetamide]	–	1.2	215	–
N#CC(c1ccccc1)(c1ccccc1)c1ccc(F)cc1 [Compound T27, 2-(4-Fluorophenyl)2,2-diphenylacetonitrile]	–	0.8	76	–
FC(F)(F)c1ccccc1C(c1ccccc1)(c1ccccc1)n1cccn1 [Compound T58, 1-{Diphenyl[2-(trifluoromethyl)-phenyl]methyl}-1H-pyrazole]	-26	5	–	–
Clc1ccccc1C(Nc1nccs1)(c1ccccc1)c1ccccc1 [Compound T66, N-[(2-Chlorophenyl)diphenylmethyl]-N-(1,3-thiazol-2yl)amine]	86.5	15	–	–
c1ccc(C(c2ccccc2)(c2ccccc2)n2cccn2)cc1 [Compound T11, 1-Trityl-1H-pyrazole]	–	2.5	202	–
NC(=O)NC(c1ccccc1)(c1ccccc1)c1ccc(F)cc1 [Compound T31, N-[(4-Fluorophenyl)diphenylmethyl] urea]	–	8	222	–
OC(c1ccccc1)(c1ccccc1)c1ccccc1Cl [Compound T3, (2-Chlorophenyl)diphenyl methanol]	-30.5	0.52	91	–
OC(c1ccccc1)(c1ccc(Cl)cc1)c1ccc(Cl)cc1 [Compound T4, Bis-(4-chlorophenyl)phenyl methanol]	–	–	86	Kd for block of IKCa1 (human IKCa1 channel; [2]): No effect at 1 μM
Clc1ccccc1C(c1ccccc1)(c1ccccc1)n1ccnc1 [Clotrimazole, reference compound]	–	–	–	Block of COS-7 (Cl) (COS-7 chloride channel): no effect at 10 μM (n =; hydrolysis: % T3 formed ([1]; after 48 h): 22%; hydrolysis: % T3 formed ([1]; after 72 h): 35%; inhibition at 30 min, 0.1 μM (CYP3A4): 99%
c1ccc(C(NCc2ccc(CNC(c3ccccc3)(c3ccccc3)c3ccccc3)cc2)(c2ccccc2)c2ccccc2)cc1 [Compound T23, 1,4-Ditritylaminomethyl benzene]	–	–	201	Kd for block of IKCa1 (human IKCa1 channel; [2]): No effect at 1 μM
N#CC(c1ccccc1)(c1ccccc1)c1ccccc1Cl [Compound T39, 2-(2-Chlorophenyl)2,2-diphenylacetonitrile]	10	0.06	–	IKCa1 inhibition compared with clotrimazole (human IKCa1 channel): more potent inhibitors of IKCa1 channels than clotrimazole
OC(c1ccccc1)(c1ccccc1)c1cccc(Cl)c1 [Compound T2, (3-Chlorophenyl)diphenyl methanol]	–	0.53	53	–
